This note sets out measurements from patent publication US10252987B2, “Type of antiviral compound” (Institute of Medicinal Biotechnology, Chinese Academy of …, priority 2015, dated 2019).

The test system of the assay is HCV. Kind of assay: anti-HCV activity assay in cell culture (HCV RNA by one-step quantitative RT-PCR). To be noted: compound at 10 μmol/L, Huh7.5 cells infected with HCV virus particles, cultured 96 hrs, HCV RNA in cells vs virus control group; for inhibition at 10 µM: Hepatitis C virus, Huh7.5, 96 h, read-out: percent inhibition (%). It is filed as cell-based. The procedure: The assay results of anti-HCV activity of the compound synthesized according to the present invention in cell culture are shown in Table 1, wherein the molecular weight is calculated by ChemBioDraw 12.0 software from the molecular structure of each compound.
100 μL Huh7.5 cells were seeded in 96-well cell culture plate to 1×10^5/mL density, cultured in an incubator at 37° C. under the condition of 5% CO2 and saturated humidity for 6 hrs. Huh7.5 cells were then infected by viral solution containing HCV virus particles, and solutions of compound of the present invention at a concentration of 10 μmol/L liquid were added respectively, cultured for further 96 hrs, and then total RNA was extracted from the cells. Amount of HCV RNA in cells was determined by one-step quantitative RT-PCR, and compared to RNA levels of the virus control group to calculate the inhibition rate of compounds on HCV.

For `COc1ccc(N2CCN(Cc3cc(N(C)CCN(C)C)ccc3C#N)CC2)cc1OC` [VI-45, 4-(N,N′,N′-trimethyl-1,2-ethylenediamin-1-yl)-2-(3,4-dimethoxyphenylpiperazin-1-yl)methylbenzonitrile], the “percent inhibition (%)” value is 92%. `CN1CCN(c2ccc(C#N)c(CNc3ccc(Cl)cc3)c2)CC1` [Compound 8, 4-(4-methylpiperazin-1-yl)-2-(p-chlorophenylamino)methylbenzonitrile]: the inhibition (usually the relative decrease from the control value, in per cent) at 10 µM is 91%. On to `CN1CCN(c2ccc(C#N)c(CN3CCN(c4ccc(C(C)(C)C)cc4)CC3)c2)CC1` [VI-13, 4-(4-methylpiperazin-1-yl)-2-(4-(4-tert-butylphenyl)piperazin-1-yl)methylbenzonitrile], for which the inhibition at 10 µM was 90%. Turning to `CC(C)c1ccc(N2CCN(Cc3cc(N4CCN(C)CC4)ccc3C#N)CC2)cc1` [VI-16, 4-(4-methylpiperazin-1-yl)-2-(4-(4-isopropylphenyl)piperazin-1-yl)methylbenzonitrile], the inhibition at 10 µM came out at 68%. With `Cc1ccc(NCc2cc(N3CCNCC3)ccc2C#N)cc1` [Compound 1, 4-(piperazin-1-yl)-2-((p-methylphenylamino)methyl)benzonitrile], the inhibition at 10 µM is 97%. `Cc1cccc(NCc2nc(N(C)CCN(C)C)ccc2C#N)c1` [Compound 40, 6-((2-(dimethylamino)ethyl)(methyl)amino)-2-((3-methylphenyl)amino)methyl-3-cyanopyridine]: the inhibition at 10 µM turned out to be 84%. Consider `CN(C)CCN(C)c1ccc(C#N)c(CN2CCC(c3ccc(Cl)cc3)CC2)c1` [VI-39, 4-(N,N′,N′-trimethyl-1,2-ethylenediamin-1-yl)-2-(4-p-chlorophenylpiperidin-1-yl)methylbenzonitrile], for which the “percent inhibition (%)” value was found to be 88%. On to `CCCN1CCN(c2ccc(C#N)c(CNc3ccccc3)c2)CC1` [Compound 18, 4-(4-propylpiperazin-1-yl)-2-(phenylamino)methylbenzonitrile], for which the inhibition at 10 µM was 75%. On the same count and under the same terms, under `Cc1ccc(N2CCN(Cc3cc(N4CCNCC4)ccc3C#N)CC2)cc1` [VI-6, 4-(piperazin-1-yl)-2-(4-(4-methylphenyl)piperazin-1-yl)methylbenzonitrile] stands 88%; under `CN1CCN(c2ccc(C#N)c(CN3CCN(c4ccc(O)cc4)CC3)c2)CC1` [VI-19, 4-(4-methylpiperazin-1-yl)-2-(4-(4-hydroxylphenyl)piperazin-1-yl)methylbenzonitrile], 67%; under `COc1ccc(NCc2cc(N3CCN(C)CC3)ccc2C#N)cc1` [Compound 10, 4-(4-methylpiperazin-1-yl)-2-(p-methoxyphenylamino)methylbenzonitrile], 90%. Still for that read-out and setting: under `CN1CCN(c2ccc(C#N)c(CNc3ccc(C4CCCC4)cc3)c2)CC1` [Compound 24, 4-(4-methylpiperazin-1-yl)-2-(p-cyclopentylphenylamino)methylbenzonitrile] stands 94%.

`Cc1cc(C2CCN(Cc3cc(N4CCN(C)CC4)ccc3C#N)CC2)ccc1C#N` [VI-23, 4-(4-methylpiperazin-1-yl)-2-(4-(3-methyl-4-cyanophenyl)piperidin-1-yl)methylbenzonitrile]: the inhibition at 10 µM worked out at 77%.

Consider `Cc1ccc(N2CCN(Cc3cc(N4CCN(C)CC4)ccc3C#N)CC2)cc1C` [VI-11, 4-(4-methylpiperazin-1-yl)-2-(4-(3,4-dimethylphenyl)piperazin-1-yl)methylbenzonitrile], for which the inhibition at 10 µM worked out at 80%. Turning to `Cc1ccc(NCc2cc(N3CCCC(N)C3)ccc2C#N)cc1` (centres unmarked) [Compound 6, 4-(3-aminopiperidin-1-yl)-2-(p-methylphenylamino)methylbenzonitrile], the inhibition at 10 µM turned out to be 68%. As to `CN1CCN(c2ccc(C#N)c(CNc3ccccc3)c2)CC1` [Compound 4, 4-(4-methylpiperazin-1-yl)-2-(phenylamino)methylbenzonitrile], the inhibition at 10 µM came out at 82%. Regarding `Cc1ccc(NCc2cc(N3CCNC(C)C3)ccc2C#N)cc1` (centres unmarked) [Compound 5, 4-(3-methylpiperazin-1-yl)-2-(p-methylphenylamino)methylbenzonitrile], the inhibition at 10 µM was 88%. In the case of `Cc1ccc(N2CCN(Cc3cc(N4CCN(C)CC4)ccc3C#N)CC2)cc1` [VI-4, 4-((4-methyl)piperazin-1-yl)-2-(4-(4-methylphenyl)piperazin-1-yl)methylbenzonitrile], the inhibition at 10 µM stood at 98%. In the case of `CN1CCN(c2ccc(C#N)c(CN3CCN(c4ccc(Cl)cc4)CC3)c2)CC1` [VI-9, 4-(4-methylpiperazin-1-yl)-2-(4-(4-chlorophenyl)piperazin-1-yl)methylbenzonitrile], the inhibition at 10 µM worked out at 92%. On to `CN1CCN(c2ccc(C#N)c(CNc3ccc(Br)cc3)c2)CC1` [Compound 42, 2-(((4-bromophenyl)amino)methyl)-4-(4-methylpiperazin-1-yl)benzonitrile], for which the inhibition at 10 µM was 87%. For the molecule `COc1ccc(N(C)Cc2cc(N3CCN(C)CC3)ccc2C#N)cc1` [Compound 16, 4-(4-methylpiperazin-1-yl)-2-((p-methoxyphenyl)(methyl)amino)methylbenzonitrile], the inhibition at 10 µM came to 84%. For the molecule `CN1CCN(c2ccc(C#N)c(CN3CCN(c4ccc(C5CCCCC5)cc4)CC3)c2)CC1` [VI-12, 4-(4-methylpiperazin-1-yl)-2-(4-(4-cyclohexylphenyl)piperazin-1-yl)methylbenzonitrile], the inhibition at 10 µM is 86%. Regarding `CN(C)CCN(C)c1ccc(C#N)c(CN2CCN(c3ccc(Cl)cc3)CC2)c1` [VI-35, 4-(N,N′,N′-trimethyl-1,2-ethylenediamin-1-yl)-2-(4-p-chlorophenylpiperazin-1-yl)methylbenzonitrile], the “percent inhibition (%)” value is recorded as 99%. `CNc1ccc(N2CCN(Cc3cc(N4CCN(C)CC4)ccc3C#N)CC2)cc1` [VI-20, 4-(4-methylpiperazin-1-yl)-2-(4-(4-methylaminophenyl)piperazin-1-yl)methylbenzonitrile]: the inhibition at 10 µM was 78%. On the same count and under the same terms, under `CN1CCN(c2ccc(C#N)c(CNc3ccc(C(C)(C)C)cc3)c2)CC1` [Compound 12, 4-(4-methylpiperazin-1-yl)-2-(p-tert-butylphenylamino)methylbenzonitrile] stands 92%. Regarding `COc1ccc(N2CCN(Cc3cc(NCCN(C)C)ccc3C#N)CC2)cc1` [VI-30, 4-(N′,N′-dimethyl-1,2-ethylenediamin-1-yl)-2-(4-p-methoxyphenylpiperazin-1-yl)methylbenzonitrile], the “percent inhibition (%)” value is on record as 66%. As for `COc1cc(NCc2nc(N(C)CCN(C)C)ccc2C#N)cc(OC)c1` [Compound 39], the “percent inhibition (%)” value was found to be 75%.

As for `CN1CCN(c2ccc(C#N)c(CNc3ccc(C4CCCCC4)cc3)c2)CC1` [Compound 11, 4-(4-methylpiperazin-1-yl)-2-(p-cyclohexylphenylamino)methylbenzonitrile], the inhibition at 10 µM worked out at 97%.

In the case of `CCCN(Cc1cc(N2CCN(C)CC2)ccc1C#N)c1ccc(Cl)cc1` [Compound 15, 4-(4-methylpiperazin-1-yl)-2-((p-chlorophenyl)(propyl)amino)methylbenzonitrile], the inhibition at 10 µM is 88%. Consider `CN(C)CNc1ccc(C#N)c(CN2CCN(c3ccc(C(C)(C)C)cc3)CC2)c1` [VI-33, 2-(4-(4-tert-butylphenyl)piperazin-1-yl)methyl-4-((N,N-dimethylamino)methyl)amino-benzonitrile], for which the inhibition at 10 µM is 90%. As to `N#Cc1ccc(N2CCNCC2)cc1CN1CCN(c2ccc(Cl)cc2)CC1` [VI-10, 4-(piperazin-1-yl)-2-(4-(4-chlorophenyl)piperazin-1-yl)methylbenzonitrile], the inhibition at 10 µM turned out to be 73%. `CN1CCN(c2ccc(C#N)c(CN3CCN(c4ccc(Br)cc4)CC3)c2)CC1` [VI-18, 4-(4-methylpiperazin-1-yl)-2-(4-(4-bromophenyl)piperazin-1-yl)methylbenzonitrile]: the “percent inhibition (%)” value came to 86%. Turning to `CCCN1CCN(c2ccc(C#N)c(CN(CC)c3ccc(Sc4ccccc4)cc3)n2)CC1` [Compound 41, 2-((4-(phenylthio)phenyl)(ethyl)amino)methyl-6-(4-propylpiperazin-1-yl)-3-cyanopyridine], the inhibition at 10 µM came to 57%. Regarding `CN(C)CCNc1ccc(C#N)c(CN2CCN(c3ccc(C(F)(F)F)cc3)CC2)c1` [VI-28, 4-(N′,N′-dimethyl-1,2-ethylenediamin-1-yl)-2-(4-p-trifluoromethylphenyl-piperazin-1-yl)methylbenzonitrile], the “percent inhibition (%)” value is listed as 79%.

`Cc1ccc(N2CCN(Cc3cc(N(C)CN4CCCC4)ccc3C#N)CC2)cc1` [VI-37, 4-((methyl)((pyrrolidin-1-yl)-methyl)amino)-2-(4-p-methylphenylpiperazin-1-yl)methylbenzonitrile]: the inhibition at 10 µM was 87%. On to `COc1ccc(NCc2nc(N3CCN(C)CC3)ccc2C#N)cc1` [Compound 36, 2-((4-methoxyphenyl)amino)methyl-6-(4-methylpiperazin-1-yl)-3-cyanopyridine], for which the inhibition at 10 µM came out at 75%. As for `CCCN1CCN(c2ccc(C#N)c(CN(C)c3ccc(Oc4ccccc4)cc3)c2)CC1` [Compound 22, 4-(4-propylpiperazin-1-yl)-2-((p-phenoxyphenyl)(methyl)amino)methylbenzonitrile], the inhibition at 10 µM came out at 86%. Regarding `CN(C)CCCNc1ccc(C#N)c(CN2CCN(c3ccccc3)CC2)c1` [VI-27, 4-(N′,N′-dimethyl-1,3-propanediamin-1-yl)-2-(4-phenylpiperazin-1-yl)methylbenzonitrile], the “percent inhibition (%)” value stood at 60%.
